The text below walks through data of ChEMBL document CHEMBL4152332, “Discovery and synthesis of novel magnolol derivatives with potent anticancer activity in non-small cell lung cancer” (Eur J Med Chem, 2018).

One data set deals with NCI-H1975. Put plainly: Antiproliferative activity against human NCI-H1975 cells after 72 hrs by MTT assay. The conditions noted are these: NCI-H1975, 72 h. It counts as functional, cell-based. On the technique in general: Tetrazolium assays rely on reduction of a dye to a coloured formazan, in cell work by metabolically active cells.
The next data set relates to NCI-H460. The experiment in a line: Antiproliferative activity against human H460 cells after 72 hrs by MTT assay. It counts as functional, cell-based. The conditions noted are these: NCI-H460, 72 h.
A further data set relates to HCC827. The experiment in a line: Antiproliferative activity against human HCC827 cells after 72 hrs by MTT assay. The settings on record: HCC827, 72 h. It counts as functional, cell-based.
The subject of another data set is NCI-H1650. Put plainly: Antiproliferative activity against human NCI-H1650 cells after 72 hrs by MTT assay. It counts as functional, cell-based. The conditions noted are these: NCI-H1650, 72 h.
The test system of a further data set is NCI-H358. Put plainly: Antiproliferative activity against human NCI-H358 cells after 72 hrs by MTT assay. It counts as functional, cell-based. The conditions noted are these: NCI-H358, 72 h.
A further data set relates to PC-9. Put plainly: Antiproliferative activity against human PC9 cells after 72 hrs by MTT assay. The settings on record: PC-9, 72 h. It counts as functional, cell-based.
Another data set has as its system NCI-H441. Put plainly: Antiproliferative activity against human H441 cells after 72 hrs by MTT assay. It counts as functional, cell-based. The settings on record: NCI-H441, 72 h.
For the next data set, the system named is A549. Put plainly: Antiproliferative activity against human A549 cells after 72 hrs by MTT assay. It counts as functional, cell-based. The conditions noted are these: A549, 72 h.
Data set [1] is described as follows: Antiproliferative activity against human SPC-A1 cells after 72 hrs by MTT assay. It counts as functional, cell-based. The conditions noted are these: SPCA1, 72 h.
The nature of data set [2]: Apparent aqueous solubility of the compound by HPLC analysis. It counts as physicochemical. The conditions noted are these: aqueous solution.

As to `C=CCc1ccc(O)c(-c2cc(CC=C)cc(CN3CCC(NC(=O)C=C)CC3)c2O)c1`, the IC50 in the data set with NCI-H1975, with NCI-H460 and in the data set with HCC827 was above 20 µM each time.
In the case of `OCC(O)Cc1ccc(O)c(-c2cc(CC(O)CO)ccc2O)c1` (centres undefined), the IC50 in the data set on NCI-H1975, in the data set with NCI-H460 and with HCC827 was above 40 µM each time.
In the case of `C=CCc1ccc(O)c(-c2cc(/C=C/CO)ccc2O)c1`, the IC50 with NCI-H1975, in the data set with NCI-H460 and with HCC827 was above 40 µM in each case.
On to `C=CCc1ccc(O)c(-c2cc(CC=C)cc(CN3CCN(CCO)CC3)c2O)c1`, for which the half-inhibitory concentration (IC50) in the data set with NCI-H1975 was determined as 16.5 µM; in the data set with NCI-H460 it was 17.4 µM; in the data set on HCC827, 18.9 µM.
As to `C=CCc1cc(-c2cc(/C=C/CO)ccc2O)c(O)c([C@@H]2C=C(C)CC[C@H]2C(C)C)c1`, the concentration for half-maximal inhibition (IC50) with NCI-H1975, in the data set with NCI-H460 and in the data set with HCC827 was above 40 µM each time.
In the case of `C=CCc1ccc(O)c(-c2cc(C(=O)O)ccc2O)c1`, the IC50 with NCI-H1975, with NCI-H460 and with HCC827 was above 40 µM each time.
For the molecule `C=CCc1ccc(O)c(-c2ccc(O)c(CC3CO3)c2)c1` (centres undefined), the IC50 in the data set on NCI-H1975, in the data set on NCI-H460 and with HCC827 was above 40 µM in each case.
Turning to `C=CCc1ccc(O)c(-c2cc(CC=C)cc(CN3CCC(CNC(=O)OC(C)(C)C)CC3)c2O)c1`, the IC50 in the data set on NCI-H1975, in the data set with NCI-H460 and with HCC827 was above 20 µM throughout.
`C=CCc1ccc(O)c(-c2cc(CC=C)cc(CN3CCCC(CO)C3)c2O)c1` (centres undefined): the 50% inhibitory concentration (IC50) with NCI-H1975, in the data set on NCI-H460 and in the data set with HCC827 was above 20 µM each time.
As for `C=CCc1ccc(O)c(-c2ccc(O)c(/C=C/C)c2)c1`, the IC50 in the data set on NCI-H1975 turned out to be 25.8 µM; with NCI-H460, 25.3 µM; in the data set on HCC827, 26.4 µM.
On to `C=CCc1ccc(O)c(-c2cc(CC=C)cc(CN3CCNCC3)c2O)c1`, for which the IC50 with NCI-H1975, with NCI-H460 and with HCC827 was above 20 µM in each case.
As to `C=CCc1ccc(O)c(-c2cc(CC=C)cc(CN3CCC(NC(=O)OC(C)(C)C)CC3)c2O)c1`, the IC50 with NCI-H1975 turned out to be 15.8 µM; in the data set on NCI-H460, 17.5 µM; in the data set with HCC827 it was 12.9 µM.
The matching figures for `C=CCc1ccc(O)c(-c2cc(CC=C)cc(CN3CCN(C(=O)N(C)C)CC3)c2O)c1`: above 20 µM, above 20 µM and above 20 µM.
Regarding `C=CCc1ccc(O)c(-c2cc(CC=C)cc(CN3CCN(C(=O)OC(C)(C)C)CC3)c2O)c1`, the IC50 with NCI-H1975, in the data set with NCI-H460 and in the data set on HCC827 was above 20 µM throughout.
Regarding `C=CCc1ccc(O)c(-c2cc(CC=C)cc(CN3CCN(C(=O)OCC)CC3)c2O)c1`, the IC50 with NCI-H1975, in the data set with NCI-H460 and in the data set on HCC827 was above 20 µM each time.
With `C=CCc1ccc(O)c(-c2cc(CC=C)cc(CN3CCN(C(=O)C4CC4)CC3)c2O)c1`, the half-inhibitory concentration (IC50) with NCI-H1975, in the data set with NCI-H460 and with HCC827 was above 20 µM in each case.
For the molecule `C=CCc1cc(-c2cc(C(=O)O)ccc2O)ccc1O`, the IC50 in the data set with NCI-H1975, with NCI-H460 and with HCC827 was above 40 µM each time.
As for `C=CCc1ccc(O)c(-c2cc(CC=C)cc(CN3CCN(C(C)=O)CC3)c2O)c1`, the IC50 with NCI-H1975, with NCI-H460 and with HCC827 was above 20 µM in each case.
Turning to `C=CCc1ccc(O)c(-c2cc(CC=C)cc(CN3CCOCC3)c2O)c1`, the IC50 in the data set on NCI-H1975, in the data set with NCI-H460 and in the data set with HCC827 was above 20 µM each time.
For the molecule `C=CCc1ccc(O)c(-c2cc(CC=C)cc(CN3CCN(c4ccccc4)CC3)c2O)c1`, the IC50 with NCI-H1975, with NCI-H460 and with HCC827 was above 20 µM each time.
As for `C=CCc1ccc(O)c(-c2cc(CC=C)ccc2O)c1` [MAGNOLOL], the IC50 was 56.6 µM with NCI-H1650; 61.2 µM in the data set with NCI-H358; 69 µM in the data set with PC-9; above 40 µM in the data set on NCI-H1975; 58.7 µM in the data set with NCI-H441; 57.4 µM in the data set with A549. Moreover, the 50% inhibitory concentration (IC50) is 78.2 µM in [1], above 40 µM in the data set on NCI-H460 and above 40 µM with HCC827. Also, the solubility in data set [2] was below 10 µg/mL.
In the case of `C=CCc1ccc(O)c(-c2cc(CC=C)cc(CN3CCCCC3)c2O)c1`, the IC50 in the data set with NCI-H1975, in the data set with NCI-H460 and in the data set on HCC827 was above 20 µM in each case.
With `C=CCc1ccc(O)c(-c2cc(CC(O)CO)ccc2O)c1` (centres undefined), the IC50 in the data set with NCI-H1975, in the data set on NCI-H460 and in the data set with HCC827 was above 40 µM in each case.
For `C=CCc1ccc(O)c(-c2cc(CC=C)cc(CN3CCN(CCCC)CC3)c2O)c1`, the IC50 in the data set with NCI-H1975, with NCI-H460 and in the data set with HCC827 was above 20 µM each time.
Consider `C=CCc1ccc(O)c(-c2cc(CC=C)cc([C@@H]3C=C(C)CC[C@H]3C(C)C)c2O)c1`, for which the figures for the IC50 with NCI-H1975, with NCI-H460 and in the data set with HCC827 were 16.6 µM, 18.6 µM and 15.8 µM, respectively. The solubility in [2] was below 10 µg/mL.
With `C=CCc1cc(-c2cc(CC=C)cc([C@@H]3C=C(C)CC[C@H]3C(C)C)c2O)c(O)c([C@@H]2C=C(C)CC[C@H]2C(C)C)c1`, the IC50 in the data set with NCI-H1975, in the data set with NCI-H460 and with HCC827 was above 40 µM each time.
Consider `C=CCc1ccc(O)c(-c2cc(CC=C)cc(CN3CCCC(NC(=O)OC(C)(C)C)C3)c2O)c1` (centres undefined), for which the results for the IC50 in the data set with NCI-H1975, in the data set with NCI-H460 and with HCC827 were 13.9 µM, 16.4 µM and 15.5 µM, respectively.
On to `C=CCc1ccc(O)c(-c2cc(CC=C)cc(CN3CCN(C(C)C)CC3)c2O)c1`, for which the IC50 with NCI-H1975, in the data set with NCI-H460 and in the data set with HCC827 was above 20 µM each time.
In the case of `C=CCc1ccc(O)c(-c2cc(CC=C)cc(CN3CCN(C=O)CC3)c2O)c1`, the IC50 with NCI-H1975, in the data set on NCI-H460 and in the data set with HCC827 was above 20 µM each time.
In the case of `C=CCc1ccc(O)c(-c2cc(CC=C)cc(CN3CCN(Cc4ccccc4)CC3)c2O)c1`, the IC50 with NCI-H1975, with NCI-H460 and in the data set on HCC827 was above 20 µM throughout.
Turning to `C=CCc1ccc(O)c(-c2cc(CC=C)cc(CN3CCCC(NC(=O)C=C)C3)c2O)c1` (centres undefined), the IC50 in the data set with NCI-H1975, in the data set on NCI-H460 and with HCC827 was above 20 µM each time.
For `C=CCc1ccc(O)c(-c2cc(CC=C)cc(CN3CCC(CN)CC3)c2O)c1`, the IC50 in the data set on NCI-H1975, in the data set with NCI-H460 and with HCC827 was above 20 µM in each case.
Take `C=CCc1cc(-c2cc(/C=C/C=O)ccc2O)ccc1O` [MAGNALEDEHYDE B]: the results for the 50% inhibitory concentration (IC50) with NCI-H1975, with NCI-H460 and with HCC827 were 34.1 µM, 32.4 µM and 35.5 µM, respectively.
The matching figures for `C=CCc1cc(-c2cc(O)ccc2O)ccc1O` [MAGNATRIOL B]: above 40 µM, above 40 µM and above 40 µM.
As to `C=CCc1ccc(O)c(-c2cc(CC=C)cc(CN3CCN(CCCO)CC3)c2O)c1`, the IC50 in the data set on NCI-H1975, in the data set with NCI-H460 and with HCC827 was above 20 µM each time.
As for `C=CCc1ccc(O)c(-c2cc(CC=C)cc(CN3CCCC(C(=O)OCC)C3)c2O)c1` (centres undefined), the IC50 in the data set on NCI-H1975, with NCI-H460 and in the data set with HCC827 was above 20 µM each time.
With `C=CCc1ccc(O)c(-c2cc(O)ccc2O)c1` [RANDAIOL], the IC50 in the data set with NCI-H1975, in the data set with NCI-H460 and in the data set on HCC827 was above 40 µM in each case.
Consider `C=CCc1cc(-c2ccc(O)c(CC=C)c2)c(O)c([C@@H]2C=C(C)CC[C@H]2C(C)C)c1`, for which the values for the IC50 in the data set with NCI-H1975, in the data set with NCI-H460 and in the data set with HCC827 were 26.7 µM, 27.6 µM and 31.4 µM, respectively.
For `C=CCc1ccc(O)c(-c2cc(CC=C)cc(CN3CCN(CC=C)CC3)c2O)c1`, the IC50 with NCI-H1975, with NCI-H460 and with HCC827 was above 20 µM each time.
For `C=CCc1cc(-c2cc(/C=C/CO)ccc2O)ccc1O`, the half-inhibitory concentration (IC50) in the data set on NCI-H1975 worked out at 34.5 µM; with NCI-H460 it was 31.6 µM; in the data set with HCC827, 33.6 µM.
In the case of `C=CCc1ccc(O)c(-c2cc(CC=C)cc(CN3CCN(C)CC3)c2O)c1`, the IC50 in the data set with NCI-H1975, in the data set on NCI-H460 and in the data set on HCC827 was above 20 µM in each case.
As for `C=CCc1cc(-c2cc(CC(O)CO)ccc2O)ccc1O` (centres undefined) [MAGNOLIGNAN], the half-inhibitory concentration (IC50) with NCI-H1975, with NCI-H460 and in the data set with HCC827 was above 40 µM throughout.
Take `C=CCc1ccc(O)c(-c2cc(CC=C)cc(CN3CCC(C(=O)OCC)CC3)c2O)c1`: the IC50 in the data set on NCI-H1975, in the data set with NCI-H460 and in the data set on HCC827 was above 20 µM throughout.
As for `C=CCc1ccc(O)c(-c2ccc(O)c(CC(O)CO)c2)c1` (centres undefined), the IC50 in the data set with NCI-H1975, in the data set with NCI-H460 and in the data set on HCC827 was above 40 µM each time.
For `C=CCc1cc(-c2cc(C=O)ccc2O)ccc1O` [MAGNALEDEHYDE E], the IC50 in the data set with NCI-H1975, in the data set on NCI-H460 and in the data set on HCC827 was above 40 µM each time.
Consider `C=CCc1ccc(O)c(-c2cc(CC=C)cc(CN3CCSCC3)c2O)c1`, for which the IC50 in the data set with NCI-H1975, in the data set on NCI-H460 and in the data set with HCC827 was above 20 µM throughout.
With `C=CCc1ccc(O)c(-c2cc(CC=C)cc(CN3CCCC(C)C3)c2O)c1` (centres undefined), the IC50 in the data set with NCI-H1975, in the data set on NCI-H460 and with HCC827 was above 20 µM throughout.

One may read the IC50 as the concentration that inhibits the measured activity by half. Broadly, the solubility is the concentration that dissolves in the medium under given conditions.
